Reference: ChEMBL document CHEMBL1128806, “Phosphodiesterase type IV (PDE IV) inhibition. Synthesis and evaluation of a series of 1,3,4-trisubstituted pyrrolidines” (Bioorg Med Chem Lett, 1995)

molecular target: T1, 3',5'-cyclic-AMP phosphodiesterase 4B (Homo sapiens, UniProt Q07343); experiment: Inhibition of rolipram binding to Phosphodiesterase 4B
T1 sequence (Q07343 whole entry): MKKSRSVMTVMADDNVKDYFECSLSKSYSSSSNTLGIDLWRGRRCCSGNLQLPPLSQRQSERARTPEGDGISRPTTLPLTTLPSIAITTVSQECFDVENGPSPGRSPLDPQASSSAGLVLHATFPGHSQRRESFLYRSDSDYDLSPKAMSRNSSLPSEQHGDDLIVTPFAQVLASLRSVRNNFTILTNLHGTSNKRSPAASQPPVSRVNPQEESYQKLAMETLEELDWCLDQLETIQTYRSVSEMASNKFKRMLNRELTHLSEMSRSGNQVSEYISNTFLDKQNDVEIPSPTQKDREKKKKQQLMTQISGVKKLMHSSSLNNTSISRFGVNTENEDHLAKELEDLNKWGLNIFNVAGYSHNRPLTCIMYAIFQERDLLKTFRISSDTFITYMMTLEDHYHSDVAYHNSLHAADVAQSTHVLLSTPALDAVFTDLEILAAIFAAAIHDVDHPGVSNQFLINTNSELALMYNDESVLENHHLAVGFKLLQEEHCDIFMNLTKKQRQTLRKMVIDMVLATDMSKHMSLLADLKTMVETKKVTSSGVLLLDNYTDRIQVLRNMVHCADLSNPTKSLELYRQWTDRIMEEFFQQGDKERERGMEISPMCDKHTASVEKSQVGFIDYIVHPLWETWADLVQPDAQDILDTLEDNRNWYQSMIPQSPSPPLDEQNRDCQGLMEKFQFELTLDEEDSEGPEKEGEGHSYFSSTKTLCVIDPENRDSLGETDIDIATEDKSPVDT

| SMILES | IC50 [nM] |
| --- | --- |
| COC(=O)N1C[C@@H](C(C)=O)[C@H](c2ccc(OC)c(OC3CCCC3)c2)C1 | 320 |

molecular target: T1, 3',5'-cyclic-AMP phosphodiesterase 4B; experiment: Ability to inhibit the catalytic activity of human Phosphodiesterase 4B (PDE IVB)

| SMILES | Ki [nM] |
| --- | --- |
| COC(=O)N1C[C@@H](C(C)=O)[C@H](c2ccc(OC)c(OC3CCCC3)c2)C1 | 30 |
| COc1ccc([C@@H]2CN(C(=O)OC(C)(C)C)C[C@H]2CO)cc1OC1CCCC1 | 50 |
| COC(=O)[C@@H]1CN(C(N)=S)C[C@H]1c1ccc(OC)c(OC2CCCC2)c1 | 380 |
| COC(=O)N1C[C@@H]([N+](=O)[O-])[C@H](c2ccc(OC)c(OC3CCCC3)c2)C1 | 60 |
| COC(=O)[C@@H]1CN(C(=O)OC(C)C)C[C@H]1c1ccc(OC)c(OC2CCCC2)c1 | 40 |
| COC(=O)N1C[C@@H](C#N)[C@H](c2ccc(OC)c(OC3CCCC3)c2)C1 | 80 |
| CCOC(=O)[C@@H]1CN(C(=O)OC)C[C@H]1c1ccc(OC)c(OC2CCCC2)c1 | 550 |
| COC(=O)[C@@H]1CN(C(=O)OC)C[C@H]1c1ccc(OC)c(OC2CCCC2)c1 | 160 |
| COc1ccc([C@@H]2CN(C(=O)OC(C)(C)C)C[C@H]2C(N)=O)cc1OC1CCCC1 | 190 |
| COc1ccc([C@@H]2CN(C(=O)OCc3ccccc3)C[C@H]2NS(C)(=O)=O)cc1OC1CCCC1 | 1470 |
| COC(=O)N1C[C@@H](C(=O)O)[C@H](c2ccc(OC)c(OC3CCCC3)c2)C1 | 1880 |
| COc1ccc([C@@H]2CN(C(=O)OC(C)(C)C)C[C@H]2NC(=O)OC(C)(C)C)cc1OC1CCCC1 | 1570 |
| COC(=O)[C@@H]1CN(C=O)C[C@H]1c1ccc(OC)c(OC2CCCC2)c1 | 810 |
| COC(=O)[C@@H]1CN(C(=O)OCc2ccccc2)C[C@H]1c1ccc(OC)c(OC2CCCC2)c1 | 50 |
| COc1ccc([C@@H]2CN(C(=O)OCc3ccccc3)C[C@H]2NS(=O)(=O)c2ccccc2)cc1OC1CCCC1 | 4420 |
| COC(=O)N1C[C@@H](NC(=O)OC(C)(C)C)[C@H](c2ccc(OC)c(OC3CCCC3)c2)C1 | 14400 |
| COc1ccc([C@@H]2CN(C(=O)OCc3ccccc3)C[C@H]2NC(=O)OC(C)(C)C)cc1OC1CCCC1 | 290 |
| COC(=O)[C@@H]1CN(C(=O)OC(C)(C)C)C[C@H]1c1ccc(OC)c(OCCCOc2ccccc2)c1 | 240 |
| COC(=O)N1C[C@@H](C(=O)c2ccccc2)[C@H](c2ccc(OC)c(OC3CCCC3)c2)C1 | 6030 |
| COC(=O)[C@@H]1CN(C(=O)OC(C)(C)C)C[C@H]1c1ccc(OC)c(OC2CCCC2)c1 | 30 |
| COC(=O)N1C[C@@H](C(=O)OC(C)C)[C@H](c2ccc(OC)c(OC3CCCC3)c2)C1 | 2290 |
| CCC(=O)[C@@H]1CN(C(=O)OC)C[C@H]1c1ccc(OC)c(OC2CCCC2)c1 | 350 |
| COC(=O)[C@@H]1CN(C(N)=O)C[C@H]1c1ccc(OC)c(OC2CCCC2)c1 | 1480 |
| CCC(=O)N1C[C@@H](C(=O)OC)[C@H](c2ccc(OC)c(OC3CCCC3)c2)C1 | 1130 |
| COC[C@@H]1CN(C(=O)OC(C)(C)C)C[C@H]1c1ccc(OC)c(OC2CCCC2)c1 | 80 |
| COC(=O)N1C[C@@H](C(N)=O)[C@H](c2ccc(OC)c(OC3CCCC3)c2)C1 | 1570 |
| COC(=O)[C@@H]1CN(C(=O)OC(C)(C)C)C[C@H]1c1ccc(OC)c(OC)c1 | 1200 |
| COc1ccc([C@@H]2CN(C(=O)OC(C)(C)C)C[C@H]2C(=O)O)cc1OC1CCCC1 | 150 |
| COC(=O)N1C[C@@H](C(=O)OC(C)(C)C)[C@H](c2ccc(OC)c(OC3CCCC3)c2)C1 | 4630 |

test system: not listed separately; experiment: Inhibition of TNF-alpha secretion from LPS-stimulated human monocytes; type: functional

| SMILES | IC50 [nM] |
| --- | --- |
| COC(=O)N1C[C@@H](C(C)=O)[C@H](c2ccc(OC)c(OC3CCCC3)c2)C1 | 457 |
| COc1ccc(C2CNC(=O)C2)cc1OC1CCCC1 (configuration not stated) [ROLIPRAM] | 320 |
